# Reference: US20070117182A1, “Nucleic acids conferring transcriptional responsiveness on the RANKL gene promoter and uses thereof” (Wisconsin Alumni Research Foundation, priority 2005, published 2007)
# Experiments:
# RANKL = test: RT-PCR of RANKL transcripts in treated ST2 cells; type: cell-based, mouse; settings: treated up to 24 hours, agent alone, vs beta-actin controls
# Description: (§1) FIG. 2. Induction of RANKL in ST2 cells by hormones and cytokines. ST2 cells were treated with the agents indicated for periods up to 24 hours. Total RNA was isolated and subjected to RT-PCR using a primer set to mouse RANKL and beta-actin. Positive vitamin D target control genes include Cyp24 and osteopontin (OPN).
# (§2) The inventors first established a model in which RANKL is both induced in response to 1,25(OH)2D3, PTH (forskolin) and oncostatin M (OSM), and is capable of supporting osteoclast formation when co-cultured with bone marrow monocyte- or spleen cell-derived osteoclast precursors. While a number of cell types express RANKL and induce osteoclastogenesis, the historical literature strongly supports mouse ST2 cells in this capacity, prompting the inventors to focus on this stromal/preosteoblastic line for initial studies. […] Each of these components is known to both induce RANKL expression and promote osteoclast formation as well. […] Indeed, GC effects are widely observed. […] The ability of GCs to enhance osteoclast formation in coculture assays in the presence of 1,25(OH)2D3, however, is likely due also to its coordinate ability to suppress OPG.
# osteopontin (OPN) = test: RT-PCR of osteopontin control gene in treated ST2 cells; type: cell-based, mouse; settings: up to 24 hours
# Description: as §1, §2
# Cyp24 promoter = test: ChIP of VDR/RXR at Cyp24 promoter in ST2 cells; type: cell-based, mouse; settings: 10^-7 M, 6 hours
# Description: FIG. 3. ChIP/chip analysis of the RANKL gene locus. A) ChIP: ST2 cells were treated with either vehicle or 1,25(OH)2D3 (10^−7 M) and after 6 hours subjected to ChIP using antibodies to VDR, RXR and IgG. Precipitated DNA was analyzed for the presence of either the Cyp24 or the OPN promoter. B) Arrangement of the mouse RANKL gene locus and position of flanking genes. RANKL gene is transcribed on the reverse strand (right to left). C) DNA chip: Precipitated DNA was linearly amplified and then subjected to chip analysis using tiled oligonucleotide arrays containing 50-mers spanning the RANKL gene locus as described in the text. Hybridization data derived from the arrays are indicated in log2 scale across the locus with nucleotide positions on chromosome 14 indicated on the X axis. The first set of two arrays provide linear data comparing IgG (±1,25(OH)2D3) and VDR (±1,25(OH)2D3) over the RANKL upstream regions. The second set of three arrays provides an expanded view of hybridization data comparing VDR (±1,25(OH)2D3), VDR (+1,25(OH)2D3 vs input DNA) and RXR (+1,25(OH)2D3 vs input DNA). VDR/RXR binding regions D1-D5 are tracked by the shading.
# As a first step, the inventors treated ST2 cells with either vehicle or 1,25(OH)2D3 for 6 hours, fixed the cells with formalin, and then subjected the cell lysates to ChIP analysis using antibodies to VDR, RXR, and an IgG control. […]
# [1] = test system: D5 fragment in COS7 cells; test: pRL-D5/TK-luc reporter in COS7 cells with VDR expression vector; type: cell-based, mouse
# Description: FIG. 6. Transcriptional activity of the D5 regions of the RANKL gene in the context of the TK promoter. Sequence surrounding the D5 region (1072 bp) was cloned into the pTK-luciferase vector and termed pTK-RL(D5). […] Cells were harvested after 24 hours and luciferase activity assessed. B) ST2 cells were transfected as in A above but without the VDR expression vector and evaluated as in A. C) COS-7 cells were transfected and evaluated as in A above. Luciferase was normalized using beta-gal activity. Data represent the mean of triplicate determinations (SEM). The pTK-luc control vector was unresponsive to any of the inducers (see FIG. 9). *, p<0.05 vs no treatment control.
# The activity of an enhancer must be evaluated in the context of its local environment, preferentially in the context of both other enhancers and its native promoter. In the case of the RANKL gene, however, this is clearly not possible due to the numbers and the distant locations of the potential regulatory regions. […] To ensure that the viral TK promoter background was not contributing to our evaluation, the inventors cloned the mouse RANKL promoter (−100 to +65) into pGL3, inserted RL D5 and evaluated its activity in ST2 cells as well.
# [2] = test system: human D5 region (TK-hRLD5); test: TK-hRLD5 luciferase reporter in MG-63 cells; type: cell-based; settings: 24 hours
# Description: FIG. 14. […] Cells were treated with the indicated inducers for the periods identified and isolated RNA subjected to PCR analysis for Cyp24, RANKL and b-actin. […] Two different primer sets to the human D5 region were used to assess VDR binding. […] Luciferase activity was analysed 24 hours later. […] Data are the average of triplicate determinations, SEM.
# Approximately 1000 bp of the human RANKL gene comprising D5 was cloned and inserted into a TK-luciferase expression vector (TK-hRLD5). […] The D5 RL region and an additional region immediately upstream in both the mouse and human genes contain elements that mediate the actions of parathyroid hormone, a variety of prostaglandins, cytokines such as oncostatin M and IL-6, as well as IL-1 and others.
smiles,measurement,setting,value
"C=C1/C(=C\C=C2/CCC[C@]3(C)[C@@H]([C@H](C)CCCC(C)(C)O)CC[C@@H]23)C[C@@H](O)C[C@@H]1O [1,25(OH)2D3]",RANKL transcripts,RANKL,substantial time-dependent increase
same,osteopontin (OPN) induction,osteopontin (OPN),induced in a time-dependent manner
same,abundance of Cyp24 promoter DNA precipitated with VDR and RXR antibodies,Cyp24 promoter,clearly increased the abundance of DNA
same,stimulation via the D5 fragment in COS7 cells,[1],failed to stimulate
same,activity of human D5 region,[2],induces
